Assay results as given in patent US7632861B2, “Substituted heterocyclic ethers and their use in CNS disorders” (Bristol-Myers Squibb Company, priority 2007, dated 2009).

Assays:
NK-1 = biological target: T1, NK-1 (Homo sapiens, UniProt P25103); experiment: NK1 radioligand binding assay ([125I]Substance P, U373 cell membranes); settings: 1 hour at room temperature
T1 construct: endogenous in cells; host or cells: U373 cells (crude membranes)
Method: (§1) NK-1 Binding assay. Crude membrane suspensions were prepared for the NK1 and SERT radioligand binding assays from U373 cells or recombinant HEK-293 cells expressing hSERT, respectively. Cells were harvested from T-175 flasks as follows. The medium is removed from the flasks and the cells rinsed with HBSS without Ca and without Mg. The cells are then incubated for 5-10 minutes in 10 mM Tris-Cl, pH 7.5, 5 mM EDTA before the cells are lifted with a combination of pipetting and scraping, as needed. To prepare membranes, the cell suspension is collected into centrifuge bottles and homogenized for 30 seconds with a Polytron homogenizer. The suspension is centrifuged for 30 min @ 32,000×g, 4° C., then the supernatant is decanted and the pellet resuspended and homogenized in 50 mM Tris-Cl, pH 7.5, 1 mM EDTA for 10 seconds. The suspension is then centrifuged again for 30 min @ 32,000×g, 4° C. The supernatant is decanted and the pellet resuspended in 50 mM Tris-Cl, pH 7.5, 1 mM EDTA and briefly homogenized. A Bradford assay (Bio-rad) is performed and the membrane preparation diluted to 2 mg/ml with 50 mM Tris-Cl, pH 7.5, 1 mM EDTA. Aliquots are prepared, and then frozen and stored at −80° C.
NK1 radioligand binding assay. Compounds are dissolved in 100% DMSO at a concentration 100× the desired highest assay concentration, serially diluted 1:3 in 100% DMSO, and 0.6 ul/well of each solution is dispensed to a Nunc polypropylene, round bottom, 384 well plate. 100% inhibition is defined with 0.6 ul/well of 1 mM L-733,060 (Sigma L-137) dissolved in DMSO. 30 ul/well of a 2×U373 membrane preparation (267 ug/ml in 100 mM Tris-Cl, pH 7.5, 6 mM MgCl2, 0.2% (v/v) Sigma mammalian protease inhibitor cocktail (Sigma P-8340), and 4 ug/ml chymostatin, Sigma C-7268) and 30 ul/well of a 2×radioligand solution (400 pM [^125I]Substance P (Perkin Elmer NEX-190) in 1% (w/v) BSA (Sigma A-2153), 0.1 mg/ml bacitracin, Sigma B-0125) are added to the well and the reaction incubated for 1 hour at room temperature. The contents of the assay plate are then transferred to a Millipore MultiscreenHTS GF/B filter plate which has been pretreated with 0.5% PEI for at least one hour. The plate is vacuum filtered and washed with 7 washes of 100 ul/well of 20 mM Tris-Cl, pH 7.5, 0.5% (w/v) BSA chilled to 4° C. The filtration and washing is completed in less than 90 s. The plates are air-dried overnight, 12 ul/well of MicroScint scintillation fluid added, and the plates counted in a Trilux.
(§2) Data analysis. The raw data are normalized to percent inhibition using control wells defining 0% (DMSO only) and 100% (selective inhibitor) inhibition which are run on each plate. Each plate is run in triplicate, and the concentration response curve thus generated is fit using the four-parameter dose response equation, Y=Bottom+(Top-Bottom)/(1+10^((LogIC50-X)*HillSlope)) in order to determine the IC50 value for each compound. The radioligand concentration chosen for each assay corresponds to the Kd concentration determined through saturation binding analysis for each assay.

hSERT = biological target: T2, hSERT (Homo sapiens, UniProt P31645); experiment: SERT radioligand binding assay ([125I]RTI-55, HEK-hSERT membranes); settings: [125I]RTI-55, 1 hour at room temperature
T2 construct: expressed in transfected cells; host or cells: HEK-293 cells (crude membranes)
T2 sequence (P31645 whole entry): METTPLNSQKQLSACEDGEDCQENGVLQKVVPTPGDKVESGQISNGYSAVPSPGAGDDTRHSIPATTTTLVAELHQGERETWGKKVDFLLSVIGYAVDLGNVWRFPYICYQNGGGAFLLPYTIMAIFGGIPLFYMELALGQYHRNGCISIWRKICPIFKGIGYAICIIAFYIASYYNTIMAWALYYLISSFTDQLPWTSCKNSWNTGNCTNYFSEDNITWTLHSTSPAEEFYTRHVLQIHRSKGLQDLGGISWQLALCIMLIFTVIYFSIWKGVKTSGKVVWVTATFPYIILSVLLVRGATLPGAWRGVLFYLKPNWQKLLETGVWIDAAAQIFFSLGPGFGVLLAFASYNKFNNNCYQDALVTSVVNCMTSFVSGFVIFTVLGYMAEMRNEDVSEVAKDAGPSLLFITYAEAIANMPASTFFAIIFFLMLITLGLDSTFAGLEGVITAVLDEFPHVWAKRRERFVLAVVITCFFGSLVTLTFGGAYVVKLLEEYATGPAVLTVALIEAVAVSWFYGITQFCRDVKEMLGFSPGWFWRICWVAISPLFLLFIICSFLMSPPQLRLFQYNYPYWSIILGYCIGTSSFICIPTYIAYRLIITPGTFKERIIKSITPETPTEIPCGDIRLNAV
Method: as §1
SERT radioligand binding assay. Compounds are dissolved in 100% DMSO at a concentration 100× the desired highest assay concentration, serially diluted 1:3 in 100% DMSO, and 0.4 ul/well of each solution is dispensed to a Nunc polypropylene, round bottom, 384 well plate. 100% inhibition is defined with 0.4 ul/well of 1 mM fluoxetine (Sigma F-132) dissolved in DMSO. 20 ul/well of a 2×HEK-hSERT membrane preparation (15 ug/ml in 50 mM Tris-Cl, pH 7.5, 120 mM NaCl, 5 mM KCl) and 20 ul/well of a 2×radioligand solution (520 pM [^125I]RTI-55 (Perkin-Elmer NEX-272) in 50 mM Tris-Cl, pH 7.5, 120 mM NaCl, 5 mM KCl) are added to each well and the reaction incubated for 1 hour at room temperature. The contents of the assay plate are then transferred to a Millipore MultiscreenHTS GF/B filter plate which has been pretreated with 0.5% PEI for at least one hour. The plate is vacuum filtered and washed with 7 washes of 100 ul/well of 50 mM Tris-Cl, pH 7.5, 120 mM NaCl, 5 mM KCl chilled to 4° C. The filtration and washing is completed in less than 90 s. The plates are air-dried overnight, 12 ul/well of MicroScint scintillation fluid added, and the plates counted in a Trilux.
as §2

T1 sequence (P25103 whole entry): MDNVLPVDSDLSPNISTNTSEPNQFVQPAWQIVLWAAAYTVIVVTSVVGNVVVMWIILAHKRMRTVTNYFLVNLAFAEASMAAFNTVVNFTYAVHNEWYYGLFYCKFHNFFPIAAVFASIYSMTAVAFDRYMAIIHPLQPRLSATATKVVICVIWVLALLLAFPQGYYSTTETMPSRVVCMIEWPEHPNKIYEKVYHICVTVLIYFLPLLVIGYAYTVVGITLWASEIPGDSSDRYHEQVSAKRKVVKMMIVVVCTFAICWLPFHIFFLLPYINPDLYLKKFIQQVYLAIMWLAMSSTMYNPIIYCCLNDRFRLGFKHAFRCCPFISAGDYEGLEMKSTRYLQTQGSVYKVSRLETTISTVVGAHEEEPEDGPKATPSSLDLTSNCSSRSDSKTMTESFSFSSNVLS

IC50 (NK-1)	IC50 (hSERT)	SMILES
0.01 to 100 nM	> 300 nM	CN(C)CCCC1(COCc2cc(C(F)(F)F)cc(C(F)(F)F)c2)OCc2ccccc21 (stereo not drawn) [Example 38, 3-(1-((3,5-is(trifluoromethyl)benzyloxy)methyl)-1,3-dihydroisobenzofuran-1-yl)-N,N-dimethylpropan-1-amine]
0.01 to 100 nM	0.01 to 100 nM	NCCC1(COCc2cc(C(F)(F)F)cc(C(F)(F)F)c2)OCCc2ccccc21 (stereo not drawn) [Example 39, 2-(1-((3,5-Bis(trifluoromethyl)benzyloxy)methyl)isochroman-1-yl)ethanamine]
0.01 to 100 nM	0.01 to 100 nM	CN(C)CCC1(COCc2cc(C(F)(F)F)cc(C(F)(F)F)c2)OCCc2ccccc21 (stereo not drawn) [Example 40, 2-(1-((3,5-Bis(trifluoromethyl)benzyloxy)methyl)isochroman-1-yl)-N,N-dimethylethanamine]
